Experimental data as given in ChEMBL document CHEMBL1142142, “Synergistic activities of azithromycin and amphotericin B against Naegleria fowleri in vitro and in a mouse model of primary amebic meningoencephalitis” (Antimicrob Agents Chemother, 2007).
pIC50: −log10 of the molar value. Calls of active or inactive are those of the source. The rule behind the calls is not given here.

Columns and labels:
Mus musculus [1] = assay: Effect on mean time to death in Naegleria fowleri Lee (M67) infected CD1 mouse at 2.5 mg/kg, ip in presence of azithromycin; format: functional, organism-based; set-up: dose 2.5 mg/kg
Naegleria fowleri [2] = assay: Antimicrobial activity against Naegleria fowleri Lee (M67) in presence of amphotericin B at 3:1 ratio on day 3; format: functional
Naegleria fowleri [3] = assay: Antimicrobial activity against Naegleria fowleri Lee (M67) at day 2; format: functional, organism-based; conditions: 48 h
Naegleria fowleri [4] = assay: Antimicrobial activity against Naegleria fowleri Lee (M67) in presence of amphotericin B at 1:1 ratio on day 2; format: functional
Mus musculus [5] = assay: Protection against Naegleria fowleri Lee (M67) infection in CD1 mouse at 2.5 mg/kg, ip in presence of azithromycin; format: functional; conditions: route intraperitoneal
Naegleria fowleri [6] = assay: Antimicrobial activity against Naegleria fowleri Lee (M67) in presence of amphotericin B at 1:3 ratio on day 3; format: functional
Mus musculus [7] = assay: Effect on mortality in Naegleria fowleri Lee (M67) infected CD1 mouse at 2.5 mg/kg, ip in presence of azithromycin; format: functional; conditions: route intraperitoneal
Mus musculus [8] = assay: Effect on mean time to death in Naegleria fowleri Lee (M67) infected CD1 mouse at 2.5 mg/kg/day, ip; format: functional; conditions: route intraperitoneal
Naegleria fowleri [9] = assay: Antimicrobial activity against Naegleria fowleri Lee (M67) in presence of amphotericin B at 1:3 ratio on day 2; format: functional
Naegleria fowleri [10] = assay: Antimicrobial activity against Naegleria fowleri Lee (M67) in presence of amphotericin B at 3:1 ratio on day 2; format: functional
Naegleria fowleri [11] = assay: Antimicrobial activity against Naegleria fowleri Lee (M67) at day 3; format: functional, organism-based; conditions: 72 h
Mus musculus [12] = assay: Effect on mortality in Naegleria fowleri Lee (M67) infected CD1 mouse at 2.5 mg/kg/day, ip; format: functional; conditions: route intraperitoneal
Naegleria fowleri [13] = assay: Antimicrobial activity against Naegleria fowleri Lee (M67) in presence of amphotericin B at 1:1 ratio on day 3; format: functional
Mus musculus [14] = assay: Protection against Naegleria fowleri Lee (M67) infection in CD1 mouse at 2.5 mg/kg/day, ip; format: functional; conditions: route intraperitoneal
Naegleria fowleri [15] = assay: Antimicrobial activity against Naegleria fowleri Lee (M67) in presence of azithromycin at 1:1 ratio on day 3; format: functional
Naegleria fowleri [16] = assay: Antimicrobial activity against Naegleria fowleri Lee (M67) in presence of azithromycin at 3:1 ratio on day 2; format: functional
Naegleria fowleri [17] = assay: Antimicrobial activity against Naegleria fowleri Lee (M67) in presence of azithromycin at 1:3 ratio on day 3; format: functional
Naegleria fowleri [18] = assay: Antimicrobial activity against Naegleria fowleri Lee (M67) in presence of azithromycin at 1:3 ratio on day 2; format: functional
Mus musculus [19] = assay: Protection against Naegleria fowleri Lee (M67) infection in CD1 mouse at 25 mg/kg/day, ip; format: functional; conditions: route intraperitoneal
Naegleria fowleri [20] = assay: Antimicrobial activity against Naegleria fowleri Lee (M67) in presence of azithromycin at 3:1 ratio on day 3; format: functional
Naegleria fowleri [21] = assay: Antimicrobial activity against Naegleria fowleri Lee (M67) in presence of azithromycin at 1:1 ratio on day 2; format: functional
Mus musculus [22] = assay: Effect on mortality in Naegleria fowleri Lee (M67) infected CD1 mouse at 25 mg/kg/day, ip; format: functional; conditions: route intraperitoneal
Mus musculus [23] = assay: Effect on mean time to death in Naegleria fowleri Lee (M67) infected CD1 mouse at 25 mg/kg/day, ip; format: functional; conditions: route intraperitoneal

SMILES: C[C@@H]1[C@H](O)[C@@H](C)/C=C/C=C/C=C/C=C/C=C/C=C/C=C/[C@H](O[C@@H]2O[C@H](C)[C@@H](O)[C@H](N)[C@@H]2O)C[C@@H]2O[C@](O)(C[C@@H](O)C[C@@H](O)[C@H](O)CC[C@@H](O)C[C@@H](O)CC(=O)O[C@H]1C)C[C@H](O)[C@H]2C(=O)O [AMPHOTERICIN B]
- Activity (Mus musculus [1]): Active
- FIC50 (Naegleria fowleri [2]): 0.303
- pIC50 (Naegleria fowleri [3]): 7.58
- FIC50 (Naegleria fowleri [4]): 0.241
- Activity (Mus musculus [5]): 100%
- FIC50 (Naegleria fowleri [6]): 0.167
- Activity (Mus musculus [7]): 0%
- Activity (Mus musculus [8]): 7 days
- FIC50 (Naegleria fowleri [9]): 0.311
- FIC50 (Naegleria fowleri [10]): 0.254
- pIC50 (Naegleria fowleri [11]): 7.74
- Activity (Mus musculus [12]): 55%
- FIC50 (Naegleria fowleri [13]): 0.309
- Activity (Mus musculus [14]): 27%

SMILES: CC[C@H]1OC(=O)[C@H](C)[C@@H](O[C@H]2C[C@@](C)(OC)[C@@H](O)[C@H](C)O2)[C@H](C)[C@@H](O[C@@H]2O[C@H](C)C[C@H](N(C)C)[C@H]2O)[C@](C)(O)C[C@@H](C)CN(C)[C@H](C)[C@@H](O)[C@]1(C)O [AZITHROMYCIN]
- FIC50 (Naegleria fowleri [15]): 0.308
- pIC50 (Naegleria fowleri [3]): 8.59
- FIC50 (Naegleria fowleri [16]): 0.088
- FIC50 (Naegleria fowleri [17]): 0.55
- pIC50 (Naegleria fowleri [11]): 8.51
- FIC50 (Naegleria fowleri [18]): 0.464
- Activity (Mus musculus [19]): 40%
- FIC50 (Naegleria fowleri [20]): 0.103
- FIC50 (Naegleria fowleri [21]): 0.238
- Activity (Mus musculus [22]): 45%
- Activity (Mus musculus [23]): 12.4 days
